Measured values published in publication PMC10518257 (Nature Cancer, 2023).
Where “and” joins values, the source holds several entries; their conditions need not be identical. Equal values may be shown once.

Columns and labels:
ECLC5 xenografts = assay: Subcutaneous xenograft efficacy study; details: for Change in Tumor Volume: end of study, individual tumors
[1] = system: ECLC5 luciferase cells implanted intracranially; assay: Intracranial efficacy study; type: in vivo, NSG mice; details: for Luminescence Data: Fig. 8e ECLC5 intracranial, 50 mg/kg BID, individual animals
[2] = system: NIH-3T3-CCDC6::RET xenografts; assay: Subcutaneous xenograft efficacy study; details: 25 mg/kg BID

How did the “Area Under Curve of tumor growth, Mean” value (ECLC5 xenografts; 25 mg/kg BID) turn out when `COCc1ccc(NC(=O)c2c(C#CCN3CCOCC3)n(C3(C)CC3)c3ncnc(N)c23)cc1` [Vepafestinib, 4-amino-N-[4-(methoxymethyl)phenyl]-7-(1-methylcyclopropyl)-6-[3-(morpholin-4-yl)prop-1-yn-1-yl]-7H-pyrrolo[2,3-d]pyrimidine-5-carboxamide] was run?
The value was -1045.

What about the Tumor volume (ECLC5 xenografts; 25 mg/kg BID, day 0, individual animals) of the same compound?
The Tumor volume was 91.87 mm3 (2×) and 88.56 mm3 (2×) and 85.31 mm3.

And the Tumor volume (ECLC5 xenografts; 25 mg/kg BID, day 4, individual animals)?
The Tumor volume was 74.9 mm3 (2×) and 77.87 mm3 and 71.99 mm3 and 69.38 mm3.

What about the Tumor volume (ECLC5 xenografts; 25 mg/kg BID, day 7, individual animals) of the same compound?
Its Tumor volume is 60.32 mm3 (2×) and 59.11 mm3 and 58.99 mm3 (2×).

And the Tumor volume (ECLC5 xenografts; 25 mg/kg BID, day 11, individual animals)?
The Tumor volume was 60.32 mm3 and 48.77 mm3 and 55.52 mm3 and 54.07 mm3 (2×).

And the Tumor volume (ECLC5 xenografts; 25 mg/kg BID, day 14, individual animals)?
Its Tumor volume is 60.32 mm3 and 48.77 mm3 and 55.52 mm3 and 54.07 mm3 (2×).

And the “Change in Tumor Volume” value (ECLC5 xenografts; 25 mg/kg BID)?
Its value is -43.3221% and -50.8017% and -52.5743% and -65.5492% and -27.8004%.

And the tumor regression (ECLC5 xenografts; 50 mg per kg BID)?
The tumor regression was 100% ± 0%.

And the “Area Under Curve of tumor growth, Mean” value (ECLC5 xenografts; 50 mg/kg BID)?
The value was -1486.

What about the Tumor volume (ECLC5 xenografts; 50 mg/kg BID, day 0, individual animals) of the same compound?
The Tumor volume was 83.83 mm3 and 88.56 mm3 (2×) and 87.03 mm3 and 85.31 mm3.

What about the Tumor volume (ECLC5 xenografts; 50 mg/kg BID, day 4, individual animals) of the same compound?
Its Tumor volume is 68.07 mm3 and 72.18 mm3 (2×) and 66.63 mm3 (2×).

What about the Tumor volume (ECLC5 xenografts; 50 mg/kg BID, day 7, individual animals) of the same compound?
The Tumor volume was 39.61 mm3 and 59.11 mm3 and 58.99 mm3 and 61.52 mm3 and 53.18 mm3.

What about the Tumor volume (ECLC5 xenografts; 50 mg/kg BID, day 11, individual animals) of the same compound?
Its Tumor volume is 36.97 mm3 and 42.6 mm3 and 49.37 mm3 and 48.41 mm3 and 48.77 mm3.

What about the Tumor volume (ECLC5 xenografts; 50 mg/kg BID, day 14, individual animals) of the same compound?
Its Tumor volume is 36.97 mm3 and 42.6 mm3 and 41.37 mm3 and 45.5 mm3 and 44.53 mm3.

And the “Change in Tumor Volume” value (ECLC5 xenografts; 50 mg/kg BID)?
Its value is -100%.

What about the “Area Under Curve of tumor growth, Mean” value (ECLC5 xenografts; 50 mg/kg QD) of the same compound?
The value was -1322.

What about the Tumor volume (ECLC5 xenografts; 50 mg/kg QD, day 0, individual animals) of the same compound?
The Tumor volume was 85.31 mm3 and 83.83 mm3 and 88.56 mm3 and 91.87 mm3 and 90.28 mm3.

What about the Tumor volume (ECLC5 xenografts; 50 mg/kg QD, day 4, individual animals) of the same compound?
The Tumor volume was 72.18 mm3 (2×) and 75.04 mm3 and 68.07 mm3 and 69.38 mm3.

And the Tumor volume (ECLC5 xenografts; 50 mg/kg QD, day 7, individual animals)?
Its Tumor volume is 50.89 mm3 and 53.18 mm3 and 49.83 mm3 (2×) and 48.77 mm3.

What about the Tumor volume (ECLC5 xenografts; 50 mg/kg QD, day 11, individual animals) of the same compound?
The Tumor volume was 52.07 mm3 (2×) and 57.91 mm3 and 49.83 mm3 and 48.77 mm3.

What about the Tumor volume (ECLC5 xenografts; 50 mg/kg QD, day 14, individual animals) of the same compound?
The Tumor volume was 52.07 mm3 (2×) and 57.91 mm3 and 48.77 mm3 and 62.73 mm3.

What about the “Change in Tumor Volume” value (ECLC5 xenografts; 50 mg/kg QD) of the same compound?
The value was -57.7775% and -61.9945% and -68.4282% and -71.9277% and -43.6309%.

What about the tumor regression (ECLC5 xenografts; 100 mg per kg QD) of the same compound?
The tumor regression was 90.3% ± 4%.

What about the “Area Under Curve of tumor growth, Mean” value (ECLC5 xenografts; 100 mg/kg QD) of the same compound?
Its value is -1970.

What about the Tumor volume (ECLC5 xenografts; 100 mg/kg QD, day 0, individual animals) of the same compound?
The Tumor volume was 91.87 mm3 (2×) and 88.56 mm3 and 85.31 mm3 (2×).

What about the Tumor volume (ECLC5 xenografts; 100 mg/kg QD, day 4, individual animals) of the same compound?
The Tumor volume was 47.71 mm3 and 52.07 mm3 (2×) and 49.83 mm3 and 50.97 mm3.

And the Tumor volume (ECLC5 xenografts; 100 mg/kg QD, day 7, individual animals)?
The Tumor volume was 38.79 mm3 and 35.19 mm3 and 30.11 mm3 (2×) and 25.42 mm3.

And the Tumor volume (ECLC5 xenografts; 100 mg/kg QD, day 11, individual animals)?
Its Tumor volume is 38.79 mm3 and 35.19 mm3 and 26.94 mm3 (2×) and 30.11 mm3.

And the Tumor volume (ECLC5 xenografts; 100 mg/kg QD, day 14, individual animals)?
Its Tumor volume is 34.35 mm3 and 35.19 mm3 and 26.94 mm3 and 28.5 mm3 and 30.11 mm3.

And the “Change in Tumor Volume” value (ECLC5 xenografts; 100 mg/kg QD)?
Its value is -85.621% and -100% and -81.7724% and -84.0971%.

What about the survival time ([1]; 50 mg per kg BID, all animals alive) of the same compound?
Its survival time is > 139 d of treatment.

And the “Luminescence Data” value ([1]; treatment day 0 (=1))?
Its value is 1.

And the “Luminescence Data” value ([1]; treatment day 5, day 0 = 1, 50 mg/kg)?
Its value is 0.4116 and 0.5677 and 0.6168 and 0.1116 and 0.9191 and 0.3141.

And the “Luminescence Data” value ([1]; treatment day 12, day 0 = 1, 50 mg/kg)?
Its value is 0.3041 and 0.6223 and 0.3951 and 0.05187 and 0.856 and 0.4174.

And the “Luminescence Data” value ([1]; treatment day 18, day 0 = 1, 50 mg/kg)?
The value was 0.3959 and 0.7406 and 0.6024 and 0.03931 and 0.9545 and 0.2802.

What about the “Luminescence Data” value ([1]; treatment day 26, day 0 = 1, 50 mg/kg) of the same compound?
The value was 0.3977 and 0.5749 and 0.4469 and 0.01537 and 0.7719 and 0.2517.

What about the “Luminescence Data” value ([1]; treatment day 33, day 0 = 1, 50 mg/kg) of the same compound?
The value was 0.4164 and 0.7522 and 0.6219 and 0.01856 and 1.136 and 0.285.

And the “Luminescence Data” value ([1]; treatment day 40, day 0 = 1, 50 mg/kg)?
Its value is 0.3201 and 0.5375 and 0.4135 and 0.01963 and 0.792 and 0.1799.

And the “Luminescence Data” value ([1]; treatment day 46, day 0 = 1, 50 mg/kg)?
Its value is 0.3305 and 0.5368 and 0.3264 and 0.008566 and 0.9694 and 0.2044.

And the “Luminescence Data” value ([1]; treatment day 55, day 0 = 1, 50 mg/kg)?
Its value is 0.516 and 0.834 and 0.6149 and 0.01696 and 1.167 and 0.3646.

And the “Luminescence Data” value ([1]; treatment day 61, day 0 = 1, 50 mg/kg)?
The value was 0.3872 and 0.6582 and 0.5284 and 0.01449 and 1.158 and 0.246.

What about the “Luminescence Data” value ([1]; treatment day 68, day 0 = 1, 50 mg/kg) of the same compound?
The value was 0.3804 and 0.71 and 0.4932 and 0.01469 and 1.521 and 0.2588.

And the “Luminescence Data” value ([1]; treatment day 75, day 0 = 1, 50 mg/kg)?
The value was 0.2695 and 0.603 and 0.5415 and 0.02346 and 1.537 and 0.2239.

What about the “Luminescence Data” value ([1]; treatment day 82, day 0 = 1, 50 mg/kg) of the same compound?
Its value is 0.477 and 0.7647 and 0.421 and 0.02545 and 2.278 and 0.2761.

And the “Luminescence Data” value ([1]; treatment day 89, day 0 = 1, 50 mg/kg)?
Its value is 0.4292 and 0.858 and 0.6342 and 0.04079 and 3.665 and 0.3289.

What about the “Luminescence Data” value ([1]; treatment day 96, day 0 = 1, 50 mg/kg) of the same compound?
The value was 0.3189 and 0.6963 and 0.5402 and 0.01338 and 5.016 and 0.1926.

What about the “Luminescence Data” value ([1]; treatment day 103, day 0 = 1, 50 mg/kg) of the same compound?
The value was 0.4201 and 0.6542 and 0.7489 and 0.02359 and 6.915 and 0.2847.

And the “Luminescence Data” value ([1]; treatment day 110, day 0 = 1, 50 mg/kg)?
The value was 0.2991 and 0.6305 and 0.5409 and 0.02851.

And the “Area Under Curve of tumor growth, Mean” value [2]?
The value was 1601.

And the “Tumor volume” value ([2]; day 0, individual animals)?
Its value is 93.59 mm3 (2×) and 90.28 mm3 (3×).

And the “Tumor volume” value ([2]; day 2, individual animals)?
Its value is 193.69 mm3 and 110.58 mm3 and 112.28 mm3 and 116.25 mm3 (2×).

What about the “Tumor volume” value ([2]; day 5, individual animals) of the same compound?
The value was 537.65 mm3 and 353.84 mm3 and 294.89 mm3 and 435.05 mm3 and 334.49 mm3.

What about the “Tumor volume” value ([2]; day 8, individual animals) of the same compound?
Its value is 612.84 mm3 and 590.68 mm3 and 301.59 mm3 and 585.96 mm3 and 389.56 mm3.
